Laboratory results published in patent US10072045B1, “Antibacterial lipopeptides and methods for their preparation and use” (priority 2017, dated 2018).
≈ marks a conversion by molar mass, not a printed value. Where two headings read alike, the source gives them in different places.

Tests used:
Assay type in all cases: cell-based
[1] = tested on: Vancomycin-Sensitive Enterococci hirae (VSE, ATCC 1056); experiment: microbe, parasite or virus in culture
Experimental: (§1) See, Balouiri, M.; Sadiki, M.; Ibnsouda, S. K.; Methods for In vitro evaluation of antimicrobial activity: review. Journal of Pharmaceutical Analysis, 2016, 6 (2), 71-79; CLSI, Methods for Dilution Antimicrobial Susceptibility Tests for Bacteria that Grow Aerobically, Approved Standard, 9th Ed, CLSI document M07-A9. Approximately 50 μl of the bacterial (MRSA or MSSA) cell suspension (1.0×10^6/ml) inoculated in each well (96-micro well plate) containing 50 μl of dosing solution and plates were incubated at 37±+1C for 18 hrs. After the incubation, bacterial growth in each well of 96-well plate were calorimetrically measured by a Biotek microtiter plate reader at 630 nm. The bacterial growth inhibition (GI) is expressed as a percentage relative to the negative control.
Vancomycin-Sensitive Enterococci hirae (VSE, ATCC 1056).

[2] = tested on: Vancomycin-Resistant Enterococci faecalis (VRE, ATCC 51299); experiment: microbe, parasite or virus in culture
Experimental: as §1
(§2) Vancomycin-Resistant Enterococci faecalis (VRE, ATCC 51299);

[3] = tested on: Vancomycin-Sensitive Enterococci faecalis (VSE, ATCC 29212); experiment: microbe, parasite or virus in culture
Experimental: as §1
Vancomycin-Sensitive Enterococci faecalis (VSE, ATCC 29212);

[4] = tested on: Vancomycin-Resistant Enterococci faecium (VRE, ATCC 700221); experiment: microbe, parasite or virus in culture
Experimental: as §1
(§3) Vancomycin-Resistant Enterococci faecium (VRE, ATCC 700221);

[5] = tested on: Methicillin-Sensitive Staphylococcus aureus (MSSA, ATCC6538); experiment: microbe, parasite or virus in culture; conditions: read-out: Minimum Inhibitory Concentration (MIC) MSSA (ATCC6538)
Experimental: as §1
Methicillin-Sensitive Staphylococcus aureus (MSSA, ATCC6538)

[6] = tested on: Methicillin-Resistant Staphylococcus aureus (MRSA, ATCC33591); experiment: microbe, parasite or virus in culture; conditions: for potency relative to daptomycin against MRSA: fold as potent as daptomycin
Experimental: as §1
Methicillin-Resistant Staphylococcus aureus (MRSA, ATCC33591)

[7] = tested on: Methicillin-Resistant Staphylococcus aureus (MRSA, PBR Lab Culture#1152); experiment: microbe, parasite or virus in culture; conditions: Test B, read-out: Minimum Inhibitory Concentration (MIC) MRSA (PBR1152)
Experimental: as §1
Methicillin-Resistant Staphylococcus aureus (MRSA, PBR Lab Culture#1152)

[8] = tested on: Vancomycin-Resistant Enterococci (VRE); experiment: Potency against VRE relative to daptomycin (Test C); conditions: fold better potency; strain not specified
Experimental: as §1, §3, §2

Structure (SMILES)	Minimum Inhibitory Concentration (MIC) VSE (ATCC 1056) [1] [µM]	Minimum Inhibitory Concentration (MIC) VRE (ATCC 51299) [2] [µM]	Minimum Inhibitory Concentration (MIC) VSE (ATCC 29212) [3] [µM]	Minimum Inhibitory Concentration (MIC) VRE (ATCC 700221) [4] [µM]	other results
CCCCCCCCCC(=O)N[C@@H](Cc1c[nH]c2ccccc12)C(=O)N[C@H](CC(N)=O)C(=O)N[C@@H](CC(=O)O)C(=O)N[C@@H]1C(=O)NCC(=O)N[C@@H](CCCN)C(=O)N[C@@H](CC(=O)O)C(=O)N[C@H](C)C(=O)N[C@@H](CC(=O)O)C(=O)NCC(=O)N[C@H](CO)C(=O)N[C@@H]([C@H](C)CC(=O)O)C(=O)N[C@@H](CC(=O)c2ccccc2N)C(=O)O[C@@H]1C [Daptomycin, reference compound]	5.0	1.25	1.25	2.5	
COc1cccc(OC)c1C(=O)N[C@@H]1C(=O)N2[C@@H]1SC(C)(C)[C@@H]2C(=O)O [Methicillin]					MIC ([5]; Test A): < 1 µg/mL; MIC ([5]; Test B): < 1 µg/mL; MIC ([6]; Staphylococcus aureus, Test A, read-out: Minimum Inhibitory Concentration (MIC) MRSA (ATCC33591)): > 64 µg/mL; MIC [7]: > 64 µg/mL
CCCCCCCCCC(=O)N[C@@H](Cc1c[nH]c2ccccc12)C(=O)N[C@H](CC(N)=O)C(=O)N[C@@H](CC(=O)O)C(=O)N[C@@H]1C(=O)NCC(=O)N[C@@H](CCCN)C(=O)N[C@@H](CC(=O)O)C(=O)N[C@H](C)C(=O)N[C@@H](CC(=O)O)C(=O)NCC(=O)N[C@H](CO)C(=O)N[C@@H]([C@H](C)CC(=O)O)C(=O)N[C@@H](CC(=O)c2ccccc2NCC)C(=O)O[C@@H]1C [RP001]	5.0	0.625	0.625	1.25	
CCCCCCCCCC(=O)N[C@@H](Cc1c[nH]c2ccc(F)cc12)C(=O)N[C@H](CC(N)=O)C(=O)N[C@@H](CC(=O)O)C(=O)N[C@@H]1C(=O)NCC(=O)N[C@@H](CCCN)C(=O)N[C@@H](CC(=O)O)C(=O)N[C@H](C)C(=O)N[C@@H](CC(=O)O)C(=O)NCC(=O)N[C@H](CO)C(=O)N[C@@H]([C@H](C)CC(=O)O)C(=O)N[C@@H](CC(=O)c2cc(Cl)cc(Cl)c2NCC)C(=O)O[C@@H]1C [RP005]	<0.156	<0.156	<0.156	<0.156	potency relative to daptomycin against Vancomycin-Resistant Enterococci (VRE) [8]: roughly 10 fold; potency relative to daptomycin against MRSA [6]: roughly 10 fold
CCCCCCCCCC(=O)N[C@@H](Cc1cn(C)c2ccccc12)C(=O)N[C@H](CC(N)=O)C(=O)N[C@@H](CC(=O)O)C(=O)N[C@@H]1C(=O)NCC(=O)N[C@@H](CCCN)C(=O)N[C@@H](CC(=O)O)C(=O)N[C@H](C)C(=O)N[C@@H](CC(=O)O)C(=O)NCC(=O)N[C@H](CO)C(=O)N[C@@H]([C@H](C)CC(=O)O)C(=O)N[C@@H](CC(=O)c2cc(Br)ccc2NCC)C(=O)O[C@@H]1C [RP008]	0.313	<0.156	<0.156	0.313	
CCCCCCCCCC(=O)N[C@@H](Cc1c[nH]c2ccc(C)cc12)C(=O)N[C@H](CC(N)=O)C(=O)N[C@@H](CC(=O)O)C(=O)N[C@@H]1C(=O)NCC(=O)N[C@@H](CCCN)C(=O)N[C@@H](CC(=O)O)C(=O)N[C@H](C)C(=O)N[C@@H](CC(=O)O)C(=O)NCC(=O)N[C@H](CO)C(=O)N[C@@H]([C@H](C)CC(=O)O)C(=O)N[C@@H](CC(=O)c2ccccc2NCC)C(=O)O[C@@H]1C [RP011]	1.25	<0.156	0.313	0.625	
CCCCCCCCCC(=O)N[C@@H](Cc1c[nH]c2ccc(C)cc12)C(=O)N[C@H](CC(N)=O)C(=O)N[C@@H](CC(=O)O)C(=O)N[C@@H]1C(=O)NCC(=O)N[C@@H](CCCN)C(=O)N[C@@H](CC(=O)O)C(=O)N[C@H](C)C(=O)N[C@@H](CC(=O)O)C(=O)NCC(=O)N[C@H](CO)C(=O)N[C@@H]([C@H](C)CC(=O)O)C(=O)N[C@@H](CC(=O)c2cc(Cl)cc(Cl)c2NCC)C(=O)O[C@@H]1C [RP012]	<0.156	<0.156	<0.156	<0.156	potency relative to daptomycin against Vancomycin-Resistant Enterococci (VRE) [8]: roughly 10 fold; potency relative to daptomycin against MRSA [6]: roughly 10 fold
CN[C@H](CC(C)C)C(=O)N[C@H]1C(=O)N[C@@H](CC(N)=O)C(=O)N[C@H]2C(=O)N[C@H]3C(=O)N[C@H](C(=O)N[C@H](C(=O)O)c4cc(O)cc(O)c4-c4cc3ccc4O)[C@H](O)c3ccc(c(Cl)c3)Oc3cc2cc(c3O[C@@H]2O[C@H](CO)[C@@H](O)[C@H](O)[C@H]2O[C@H]2C[C@](C)(N)[C@H](O)[C@H](C)O2)Oc2ccc(cc2Cl)[C@H]1O [Vacomycin, reference compound]					MIC ([1]; Enterococcus hirae, ATCC1056, read-out: Minimum Inhibitory Concentration (MIC) VSE (ATCC 1056)): 0.313 µM (≈ 0.454 µg/mL); MIC ([2]; Enterococcus, read-out: Minimum Inhibitory Concentration (MIC) VRE (ATCC 51299)): > 10 µM; MIC ([3]; Enterococcus faecalis, ATCC29212, read-out: Minimum Inhibitory Concentration (MIC) VSE (ATCC 29212)): 1.25 µM (≈ 1.81 µg/mL); MIC ([4]; Enterococcus, read-out: Minimum Inhibitory Concentration (MIC) VRE (ATCC 700221)): > 10 µM
